What is called pIC50 is the IC50 on a negative log10 scale, so that one unit is a factor of ten.

Structures are written as SMILES. pIC50: −log10 of the molar value. Where two headings read alike, the source gives them in different places.

Results on 33 compounds are retold here after patent US8278345B2, “Inhibitors of glutaminyl cyclase” (Probiodrug AG, priority 2006, dated 2012).

In this test the target is hQC (Homo sapiens, UniProt Q16769). Briefly: Inhibitor assay for glutaminyl cyclase activity (fluorometric, H-Gln-βNA / H-Gln-AMC). The class given is biochemical. Summed up:
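Ki values came from fitting progress curves to a competitive inhibition model; rapid screens used 4 mM inhibitor with substrate at KM. QC activity was read at 30 °C via auxiliary pyroglutamyl aminopeptidase releasing βNA (0.2 mM H-Gln-βNA, 0.2 M Tris pH 8.0, 20 mM EDTA) or AMC (0.05 M Tris pH 8.0, 5 mM EDTA).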

Sequence of hQC (Q16769 29-361): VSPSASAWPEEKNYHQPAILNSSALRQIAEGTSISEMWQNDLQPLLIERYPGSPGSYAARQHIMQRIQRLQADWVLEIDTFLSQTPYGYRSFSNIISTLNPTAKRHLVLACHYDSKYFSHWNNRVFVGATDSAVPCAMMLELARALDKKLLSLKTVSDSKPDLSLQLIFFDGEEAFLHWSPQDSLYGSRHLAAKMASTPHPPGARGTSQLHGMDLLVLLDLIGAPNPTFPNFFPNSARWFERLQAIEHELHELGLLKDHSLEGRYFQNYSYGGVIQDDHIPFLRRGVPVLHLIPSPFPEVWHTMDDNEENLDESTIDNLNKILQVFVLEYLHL

On to `Cc1cccc(C2C(C(=O)C3CC3)=C(O)C(=O)N2c2ccc3[nH]cnc3c2)c1` (stereo not shown) [Compound 260, 1-(1H-Benzoimidazol-5-yl)-4-cyclopropanecarbonyl-3-hydroxy-5-m-tolyl-1,5-dihydro-pyrrol-2-one], for which the pIC50 (read-out: IC50) is 7.40.
On the same count and under the same terms, under `CC(=O)C1=C(O)C(=O)N(c2ccc3[nH]cnc3c2)C1c1cc(F)cc(F)c1F` (stereo not shown) [Compound 261, 4-Acetyl-1-(1H-benzoimidazol-5-yl)-3-hydroxy-5-(2,3,5-trifluoro-phenyl)-1,5-dihydro-pyrrol-2-one] stands 6.51.
Same read-out and setting: for `Cc1ccc2occ(C3C(c4ccccc4)=C(O)C(=O)N3c3ccc4[nH]cnc4c3)c(=O)c2c1` (stereo not shown) [Compound 262, 1-(1H-Benzoimidazol-5-yl)-3-hydroxy-5-(6-methyl-4-oxo-4H-chromen-3-yl)-4-phenyl-1,5-dihydro-pyrrol-2-one] the value was 6.07.
Same read-out and setting: for `O=C(C1=C(O)C(=O)N(c2ccc3[nH]cnc3c2)C1c1ccc(CO)o1)c1ccsc1` (stereo not shown) [Compound 263, 1-(1H-Benzoimidazol-5-yl)-3-hydroxy-5-(5-hydroxymethyl-furan-2-yl)-4-(thiophene-3-carbonyl)-1,5-dihydro-pyrrol-2-one] the value was 5.69; for `O=C1C(O)=C(c2ccccc2)C(c2ccc(Cl)c(Cl)c2)N1c1ccc2[nH]cnc2c1` (stereo not shown) [Compound 264, 1-(1H-Benzoimidazol-5-yl)-5-(3,4-dichloro-phenyl)-3-hydroxy-4-phenyl-1,5-dihydro-pyrrol-2-one], 5.80; for `CC1=C(O)C(=O)N(c2ccc3[nH]cnc3c2)C1c1ccc(O)cc1O` (stereo not shown) [Compound 265, 1-(1H-Benzoimidazol-5-yl)-5-(2,4-dihydroxy-phenyl)-3-hydroxy-4-methyl-1,5-dihydro-pyrrol-2-one], 5.47.
Take `CC(=O)C1=C(O)C(=O)N(c2ccc3[nH]cnc3c2)C1C1CC1` (stereo not shown) [Compound 266, 4-Acetyl-1-(1H-benzoimidazol-5-yl)-5-cyclopropyl-3-hydroxy-1,5-dihydro-pyrrol-2-one]: the pIC50 (read-out: IC50) was 5.64.
In the case of `O=C1C(O)=C(c2ccccc2)C(c2cccc3cccnc23)N1c1ccc2[nH]cnc2c1` (stereo not shown) [Compound 267, 1-(1H-Benzoimidazol-5-yl)-3-hydroxy-4-phenyl-5-quinolin-8-yl-1,5-dihydro-pyrrol-2-one], where the note is “read-out: IC50”, the pIC50 is 5.12.
The same measure, in the same setting: for `CCCC(=O)C1=C(O)C(=O)N(c2ccc3[nH]cnc3c2)C1c1c[nH]c2ccccc12` (stereo not shown) [Compound 268, 1-(1H-Benzoimidazol-5-yl)-4-butyryl-3-hydroxy-5-(1H-indol-3-yl)-1,5-dihydro-pyrrol-2-one] the value was 5.07.
Take `O=C1C(O)=C(c2cccc(O)c2)C(c2ccc3nsnc3c2)N1c1ccc2[nH]cnc2c1` (stereo not shown) [Compound 269, 1-(1H-Benzoimidazol-5-yl)-5-benzo[c][1,2,5]thiadiazol-5-yl-3-hydroxy-4-(3-hydroxy-phenyl)-1,5-dihydro-pyrrol-2-one]: the pIC50 was 7.65 (compound from preparative synthesis, purified, read-out: IC50 hQC) and 8.40 (read-out: IC50).
On to `CC1=C(O)C(=O)N(c2ccc3[nH]cnc3c2)C1c1ccnc2ccccc12` (stereo not shown) [Compound 270, 1-(1H-Benzoimidazol-5-yl)-3-hydroxy-4-methyl-5-quinolin-4-yl-1,5-dihydro-pyrrol-2-one], for which, under “read-out: IC50”, the pIC50 was 5.83.
Still for that read-out and setting: under `Cc1cc(C2C(c3ccc(O)cc3)=C(O)C(=O)N2c2ccc3[nH]cnc3c2)oc1C` (stereo not shown) [Compound 271, 1-(1H-Benzoimidazol-5-yl)-5-(4,5-dimethyl-furan-2-yl)-3-hydroxy-4-(4-hydroxy-phenyl)-1,5-dihydro-pyrrol-2-one] stands 5.86; under `O=C(C1=C(O)C(=O)N(c2ccc3[nH]cnc3c2)C1c1ccc(CO)o1)c1ccncc1` (stereo not shown) [Compound 272, 1-(1H-Benzoimidazol-5-yl)-3-hydroxy-5-(5-hydroxymethyl-furan-2-yl)-4-(pyridine-4-carbonyl)-1,5-dihydro-pyrrol-2-one], 5.43; under `Cc1ccc(C2C(C(=O)C3CCCCC3)=C(O)C(=O)N2c2ccc3[nH]cnc3c2)o1` (stereo not shown) [Compound 273, 1-(1H-Benzoimidazol-5-yl)-4-cyclohexanecarbonyl-3-hydroxy-5-(5-methyl-furan-2-yl)-1,5-dihydro-pyrrol-2-one], 6.24.
The same measure, in the same setting: under `CCCCCC(=O)C1=C(O)C(=O)N(c2ccc3[nH]cnc3c2)C1C1CCOC1` (stereo not shown) [Compound 274, 1-(1H-Benzoimidazol-5-yl)-4-hexanoyl-3-hydroxy-5-(tetrahydro-furan-3-yl)-1,5-dihydro-pyrrol-2-one] stands 5.61; under `CC(C)C1=C(O)C(=O)N(c2ccc3[nH]cnc3c2)C1c1csc2ccccc12` (stereo not shown) [Compound 275, 5-Benzo[b]thiophen-3-yl-1-(1H-benzoimidazol-5-yl)-3-hydroxy-4-isopropyl-1,5-dihydro-pyrrol-2-one], 5.22.
Take `CCC1=C(O)C(=O)N(c2ccc3[nH]cnc3c2)C1c1cc(Cl)ccc1O` (stereo not shown) [Compound 276, 1-(1H-Benzoimidazol-5-yl)-5-(5-chloro-2-hydroxy-phenyl)-4-ethyl-3-hydroxy-1,5-dihydro-pyrrol-2-one]: the pIC50 (read-out: IC50) was 5.36.
Still for that read-out and setting: for `CC(C)CC(=O)C1=C(O)C(=O)N(c2ccc3[nH]cnc3c2)C1c1cn(C)c2ccccc12` (stereo not shown) [Compound 278, 1-(1H-Benzoimidazol-5-yl)-3-hydroxy-4-(3-methyl-butyryl)-5-(1-methyl-1H-indol-3-yl)-1,5-dihydro-pyrrol-2-one] the value was 5.27; for `O=C1C(O)=C(c2ccc(O)cc2)C(C2CCOC2)N1c1ccc2[nH]cnc2c1` (stereo not shown) [Compound 279, 1-(1H-Benzoimidazol-5-yl)-3-hydroxy-4-(4-hydroxy-phenyl)-5-(tetrahydro-furan-3-yl)-1,5-dihydro-pyrrol-2-one], 5.24.
Still for that read-out and setting: for `Cc1ccc2occ(C3C(c4ccc(O)cc4)=C(O)C(=O)N3c3ccc4[nH]cnc4c3)c(=O)c2c1` (stereo not shown) [Compound 280, 1-(1H-Benzoimidazol-5-yl)-3-hydroxy-4-(4-hydroxy-phenyl)-5-(6-methyl-4-oxo-4H-chromen-3-yl)-1,5-dihydro-pyrrol-2-one] the value was 6.51; for `O=C1C(O)=C(c2c[nH]c3ccccc23)C(c2cccc3cccnc23)N1c1ccc2[nH]cnc2c1` (stereo not shown) [Compound 281, 1-(1H-Benzoimidazol-5-yl)-3-hydroxy-4-(1H-indol-3-yl)-5-quinolin-8-yl-1,5-dihydro-pyrrol-2-one], 5.23.
On the same count and under the same terms, for `CCC1=C(O)C(=O)N(c2ccc3[nH]cnc3c2)C1c1cc(C)ccc1O` (stereo not shown) [Compound 282, 1-(1H-Benzoimidazol-5-yl)-4-ethyl-3-hydroxy-5-(2-hydroxy-5-methyl-phenyl)-1,5-dihydro-pyrrol-2-one] the value was 6.17.
Take `CC(=O)C1=C(O)C(=O)N(c2ccc3[nH]cnc3c2)C1c1cccc(C)c1` (stereo not shown) [Compound 283, 4-Acetyl-1-(1H-benzoimidazol-5-yl)-3-hydroxy-5-m-tolyl-1,5-dihydro-pyrrol-2-one]: the pIC50 (read-out: IC50) is 6.40.
Still for that read-out and setting: under `Cc1ccc(O)c(C2C(c3ccc(O)cc3)=C(O)C(=O)N2c2ccc3[nH]cnc3c2)c1` (stereo not shown) [Compound 284, 1-(1H-Benzoimidazol-5-yl)-3-hydroxy-5-(2-hydroxy-5-methyl-phenyl)-4-(4-hydroxy-phenyl)-1,5-dihydro-pyrrol-2-one] stands 5.15.
`Cc1[nH]c2ccccc2c1C1C(c2c[nH]c3ccccc23)=C(O)C(=O)N1c1ccc2[nH]cnc2c1` (stereo not shown) [Compound 285, 1-(1H-Benzoimidazol-5-yl)-3-hydroxy-4-(1H-indol-3-yl)-5-(2-methyl-1H-indol-3-yl)-1,5-dihydro-pyrrol-2-one]: under “read-out: IC50”, the pIC50 was 5.24.
Consider `O=C1C(O)=C(c2ccc(O)cc2)C(c2coc3ccccc3c2=O)N1c1ccc2[nH]cnc2c1` (stereo not shown) [Compound 286, 1-(1H-Benzoimidazol-5-yl)-3-hydroxy-4-(4-hydroxy-phenyl)-5-(4-oxo-4H-chromen-3-yl)-1,5-dihydro-pyrrol-2-one], for which the pIC50 (read-out: IC50) is 5.45.
On the same count and under the same terms, under `CCC1=C(O)C(=O)N(c2ccc3[nH]cnc3c2)C1c1cc(Br)c(O)c(Br)c1` (stereo not shown) [Compound 288, 1-(1H-Benzoimidazol-5-yl)-5-(3,5-dibromo-4-hydroxy-phenyl)-4-ethyl-3-hydroxy-1,5-dihydro-pyrrol-2-one] stands 5.64; under `Cc1ccc(C2C(C(=O)CC(C)C)=C(O)C(=O)N2c2ccc3[nH]cnc3c2)o1` (stereo not shown) [Compound 289, 1-(1H-Benzoimidazol-5-yl)-3-hydroxy-4-(3-methyl-butyryl)-5-(5-methyl-furan-2-yl)-1,5-dihydro-pyrrol-2-one], 6.12.
On to `CCC1=C(O)C(=O)N(c2ccc3[nH]cnc3c2)C1c1c(F)ccc(Cl)c1F` (stereo not shown) [Compound 290, 1-(1H-Benzoimidazol-5-yl)-5-(3-chloro-2,6-difluoro-phenyl)-4-ethyl-3-hydroxy-1,5-dihydro-pyrrol-2-one], for which the pIC50 (read-out: IC50) is 5.42.
On the same count and under the same terms, for `CC(C)CC(=O)C1=C(O)C(=O)N(c2ccc3[nH]cnc3c2)C1C1CCOC1` (stereo not shown) [Compound 291, 1-(1H-Benzoimidazol-5-yl)-3-hydroxy-4-(3-methyl-butyryl)-5-(tetrahydro-furan-3-yl)-1,5-dihydro-pyrrol-2-one] the value was 6.31; for `CCCC1=C(O)C(=O)N(c2ccc3[nH]cnc3c2)C1c1ccc(C(=O)O)o1` (stereo not shown) [Compound 292, 5-[1-(1H-Benzoimidazol-5-yl)-4-hydroxy-5-oxo-3-propyl-2,5-dihydro-1H-pyrrol-2-yl]-furan-2-carboxylic acid], 5.00; for `O=C(C1=C(O)C(=O)N(c2ccc3[nH]cnc3c2)C1c1ccnc2ccccc12)C1CCCCC1` (stereo not shown) [Compound 293, 1-(1H-Benzoimidazol-5-yl)-4-cyclohexanecarbonyl-3-hydroxy-5-quinolin-4-yl-1,5-dihydro-pyrrol-2-one], 6.66.
Same read-out and setting: under `O=C1C(O)=C(c2cccc(O)c2)C(c2ccc(O)c(Br)c2)N1c1ccc2[nH]cnc2c1` (stereo not shown) [Compound 294, 1-(1H-Benzoimidazol-5-yl)-5-(3-bromo-4-hydroxy-phenyl)-3-hydroxy-4-(3-hydroxy-phenyl)-1,5-dihydro-pyrrol-2-one] stands 5.24.
